Data on 15 compounds can be found in patent publication EP4119145A1, “COMPOUNDS FOR THE TREATMENT OF COVID-19” (priority 2021, dated 2023).

As a reminder, the IC50 is the concentration that gives 50% inhibition. As usually defined, the inhibition is the change of the read-out against control, counted positive when it falls.

Counter-ions that a name gives are not always drawn. Like-named read-outs stand apart in the source and are kept apart here.

This test deals with SARS-CoV-2 PL-Pro (Severe acute respiratory syndrome coronavirus 2, UniProt P0DTD1). As to the kind of experiment: biochemical. The conditions noted are these: for inhibition at 20 µM: read-out: PLPro Inhibition [%] Primary Screen (20 µM).
The mark [1] stands for this setting: dose response, 0.014 µM to 20 µM, 8 concentration points, read-out: IC50.

As to `Cc1nc2c(=O)n(C)c(=O)nc-2n(C)n1` [Compound 2, 1,3,6-Trimethylpyrimido[5,4-e][1,2,4]triazine-5,7(1H,6H)-dione], the inhibition at 20 µM was 181%. In addition, under setting [1], the concentration for half-maximal inhibition (IC50) is 74 nM.
With `Cc1cc2nc3c(=O)[nH]c(=O)nc-3n(C)c2cc1C=O` [Compound 3, 7,10-Dimethyl-2,4-dioxo-2,3,4,10-tetrahydrobenzo[g]pteridine-8-carbaldehyde], the inhibition at 20 µM amounted to 119%. In addition, the 50% inhibitory concentration (IC50) under setting [1] turned out to be 401 nM.
The corresponding values for `O=C1C(=O)c2cc([N+](=O)[O-])ccc2-c2ccccc21` [Compound 4, 2-Nitrophenanthrene-9,10-dione] are 186% and 129 nM.
The matching figures for `CC(C)(C)C(=O)Nc1ccc2c(c1)C(=O)C(=O)c1ccccc1-2` [Compound 5, N-(9,10-Dioxo-9,10-dihydrophenanthren-2-yl)-2,2-dimethylpropionamide]: 184% and 246 nM.
In the case of `O=C1C(=O)c2ccccc2-c2ccccc21` [Compound 6, phenanthrene-9,10-dione], the inhibition at 20 µM came to 181%. The IC50 under setting [1] came to 504 nM.
With `Cc1c(S(=O)(=O)O)oc2c1C(=O)C(=O)c1c-2ccc2c1CCCC2(C)C` [Compound 8, 1,6,6-Trimethyl-10,11-dioxo-6,7,8,9,10,11-hexahydrophenanthro[1,2-b]furan-2-sulfonic acid sodium salt], the inhibition at 20 µM is 124%.
Regarding `CC1(C)C(=O)N=C2C1=C(O)C(=O)c1ccccc12` [Compound 9, 4-Hydroxy-3,3-dimethyl-3,5-dihydro-2H-benzobenzo[g]indole-2,5-dione], the inhibition at 20 µM came out at 155%. Besides, the IC50 under setting [1] turned out to be 390 nM.
On to `CC1(C)CCC2=C(O1)c1ccccc1C(=O)C2=O` [Compound 10, 2,2-Dimethyl-3,4-dihydro-2H-benzo[h]1-benzopyrane-5,6-dione], for which the inhibition at 20 µM is 146%. For the same compound, under setting [1], the IC50 worked out at 4430 nM.
With `Cc1cccc2c1ccc1c3c(c(=O)oc(=O)c12)[C@@H](C)CO3` [Compound 11, (4R)-4,9-Dimethyl-4,5-dihydrofuro[3,2-c]naphtho[2,1-e]oxepine-1,3-dione], the inhibition at 20 µM was 80.7%. For the same compound, the concentration for half-maximal inhibition (IC50) under setting [1] came out at 920 nM.
Regarding `O=C1C(Cl)=C(NCCN2CCOCC2)C(=O)c2ncccc21` [Compound 12, 6-Chloro-7-[2-(4-morpholinyl)ethylamino]-5,8-dihydroquinoline-5,8-dione], half-maximal inhibition (IC50) required 220 nM and the inhibition at 20 µM was found to be 151%.
As for `Cc1ccc(NC2=CC(=O)c3sc(C)nc3C2=O)cc1` [Compound 13, 2-methyl-5-(4-methylanilino)-1,3-benzothiazole-4,7-dione], the inhibition at 20 µM turned out to be 160%. Under setting [1], the 50% inhibitory concentration (IC50) came to 260 nM.
In the case of `CC[N+](C)(CC)CCC[n+]1c(-c2ccccc2)c2cc(N)ccc2c2ccc(N)cc21` [Compound 14, 3,8-Diamino-5-(3-(diethyl(methyl)ammonio)propyl)-6-phenylphenanthridin-5-ium iodide], the IC50 came to 240 nM and the inhibition at 20 µM is 136%.
For the compound `CCOC(=O)C1=C(C)N=c2s/c(=C\c3ccc(OCC(=O)O)cc3)c(=O)n2C1c1ccc(SC)cc1` (centres unmarked) [Compound 15, 2-[4-[(Z)-[6-ethoxycarbonyl-7-methyl-5-(4-methylsulfanylphenyl)-3-oxo-5H-[1,3]thiazolo[3,2-a]pyrimidin-2-ylidene]methyl]phenoxy]acetic acid], the inhibition at 20 µM amounted to 82.8%. Also, the 50% inhibitory concentration (IC50) under setting [1] is 3140 nM.
For the compound `CC(=NNC(=N)N)c1cc(NC(=O)CCCCCCCCC(=O)Nc2cc(C(C)=NNC(=N)N)cc(C(C)=NNC(=N)N)c2)cc(C(C)=NNC(=N)N)c1` [Compound 16, N,N'-Bis[3,5-bis[1-(2-amidinohydrazono)ethyl]phenyl]decanediamide], the inhibition at 20 µM was 140%. Further, under setting [1], the IC50 is 1210 nM.
Regarding “cobalt(3+);[(2R,3S,4R,5S)-5-(5,6-dimethylbenzimidazol-1-yl)-4-hydroxy-2-(hydroxymethyl)oxolan-3-yl][(2R)-1-[3-[(1R,2R,3R,4Z,7S,9Z,12S,13S,14Z,17S,18S,19R)-2,13,18-tris(2-amino-2-oxoethyl)-7,12,17-tris(3-amino-3-oxopropyl)-3,5,8,8,13,15,18,19-octamethyl-2,7,12,17-tetrahydro-1H-corrin-21-id-3-yl]propanoylamino]propan-2-yl] phosphate;cyanide [Compound 17]”, the “PLPro Inhibition [%] Primary Screen (20 µM)” value was found to be 141.27%. Further, the 50% inhibitory concentration (IC50) (read-out: IC50) turned out to be 2900 nM.
